In ChEMBL document CHEMBL4024706 (Eur J Med Chem, 2017):

How the values were obtained:
[1] = molecular target: Serine/threonine-protein kinase Nek7 (Homo sapiens) (UniProt Q8TDX7); assay: Inhibition of wild-type human full length NEK7 (M1 to S302 residues) expressed in bacterial expression system assessed as residual activity at 1 uM by Kinomescan method relative to control
[2] = molecular target: Homeodomain-interacting protein kinase 4 (Homo sapiens) (UniProt Q8NE63); assay: Inhibition of wild-type human partial length HIPK4 (M1 to V384 residues) expressed in bacterial expression system assessed as residual activity at 1 uM by Kinomescan method relative to control
[3] = molecular target: Macrophage colony-stimulating factor 1 receptor (Homo sapiens) (UniProt P07333); assay: Inhibition of wild-type human partial length autoinhibited CSF1R (Y538 to S939 residues) expressed in mammalian expression system assessed as residual activity at 1 uM by Kinomescan method relative to control
[4] = system: Epidermal growth factor receptor (Homo sapiens), P00533 [G719S]; assay: Inhibition of human partial length EGFR G719S mutant (R669 to V1011 residues) expressed in bacterial expression system assessed as residual activity at 1 uM by Kinomescan method relative to control
[5] = molecular target: Serine/threonine-protein kinase tousled-like 1 (Homo sapiens) (UniProt Q9UKI8); assay: Inhibition of wild-type human partial length TLK1 (K447 to A754 residues) expressed in bacterial expression system assessed as residual activity at 1 uM by Kinomescan method relative to control
Sequence of Serine/threonine-protein kinase tousled-like 1 (Homo sapiens) (Q9UKI8 whole entry, the tested form may be a part): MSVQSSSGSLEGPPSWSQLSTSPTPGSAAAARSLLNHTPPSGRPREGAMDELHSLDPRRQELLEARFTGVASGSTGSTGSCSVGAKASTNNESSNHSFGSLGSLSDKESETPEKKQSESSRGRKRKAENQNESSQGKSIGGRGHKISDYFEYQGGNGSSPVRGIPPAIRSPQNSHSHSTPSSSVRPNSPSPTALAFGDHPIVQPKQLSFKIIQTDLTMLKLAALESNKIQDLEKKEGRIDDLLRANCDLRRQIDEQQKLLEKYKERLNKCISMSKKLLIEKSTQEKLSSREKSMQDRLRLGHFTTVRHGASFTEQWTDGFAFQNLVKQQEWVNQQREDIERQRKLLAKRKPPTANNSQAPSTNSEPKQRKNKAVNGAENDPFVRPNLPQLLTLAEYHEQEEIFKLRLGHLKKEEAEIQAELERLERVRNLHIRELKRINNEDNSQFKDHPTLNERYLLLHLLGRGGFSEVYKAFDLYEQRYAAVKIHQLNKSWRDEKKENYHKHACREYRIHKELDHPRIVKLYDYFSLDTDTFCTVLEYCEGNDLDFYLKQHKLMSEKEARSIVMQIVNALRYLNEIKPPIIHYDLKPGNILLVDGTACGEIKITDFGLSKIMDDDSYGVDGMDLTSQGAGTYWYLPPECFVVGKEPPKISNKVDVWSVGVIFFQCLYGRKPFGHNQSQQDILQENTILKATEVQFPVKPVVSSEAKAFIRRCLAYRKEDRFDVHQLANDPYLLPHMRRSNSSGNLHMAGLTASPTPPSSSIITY

[6] = molecular target: Serine/threonine-protein kinase Nek5 (Homo sapiens) (UniProt Q6P3R8); assay: Inhibition of wild-type human partial length NEK5 (M1 to M279 residues) expressed in bacterial expression system assessed as residual activity at 1 uM by Kinomescan method relative to control
Sequence of Serine/threonine-protein kinase Nek5 (Homo sapiens) (Q6P3R8 whole entry, the tested form may be a part): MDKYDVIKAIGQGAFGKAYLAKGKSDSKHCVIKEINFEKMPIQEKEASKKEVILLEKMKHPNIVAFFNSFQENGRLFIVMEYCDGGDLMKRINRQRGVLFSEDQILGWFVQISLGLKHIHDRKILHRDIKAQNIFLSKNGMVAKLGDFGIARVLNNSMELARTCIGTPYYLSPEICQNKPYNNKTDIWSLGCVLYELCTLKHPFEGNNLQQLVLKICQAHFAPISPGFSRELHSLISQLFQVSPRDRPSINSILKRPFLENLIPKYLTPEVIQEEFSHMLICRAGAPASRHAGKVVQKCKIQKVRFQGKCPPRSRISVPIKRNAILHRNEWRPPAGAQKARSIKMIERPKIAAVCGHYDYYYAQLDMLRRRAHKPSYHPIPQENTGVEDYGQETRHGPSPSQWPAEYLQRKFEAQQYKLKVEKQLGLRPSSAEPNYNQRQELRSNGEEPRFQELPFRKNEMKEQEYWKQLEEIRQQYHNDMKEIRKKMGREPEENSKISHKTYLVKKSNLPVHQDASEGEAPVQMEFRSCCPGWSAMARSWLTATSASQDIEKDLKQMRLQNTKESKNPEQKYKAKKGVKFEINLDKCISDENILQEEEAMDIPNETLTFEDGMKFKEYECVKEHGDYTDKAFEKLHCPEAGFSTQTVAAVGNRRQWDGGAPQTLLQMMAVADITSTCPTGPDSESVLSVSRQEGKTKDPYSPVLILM

[7] = Growth inhibition of human M07e cells; type: functional; conditions: Homo sapiens, M-07e
[8] = molecular target: Dual specificity mitogen-activated protein kinase kinase 7 (Homo sapiens) (UniProt O14733); assay: Inhibition of wild-type human full length MKK7 (M1 to R419 residues) expressed in mammalian expression system assessed as residual activity at 1 uM by Kinomescan method relative to control
[9] = Elimination half-life in Sprague-Dawley rat at 1 mg/kg, iv by LC-MS/MS method; type: ADME, organism-based; conditions: in vivo, read-out: beta t1/2 (converted)
[10] = molecular target: Epidermal growth factor receptor (Homo sapiens, UniProt P00533); assay: Inhibition of wild-type human partial length EGFR (R669 to V1011 residues) expressed in bacterial expression system assessed as residual activity at 1 uM by Kinomescan method relative to control
[11] = molecular target: Myosin-IIIa (Homo sapiens) (UniProt Q8NEV4); assay: Inhibition of wild-type human partial length MYO3A (M1 to K338 residues) expressed in bacterial expression system assessed as residual activity at 1 uM by Kinomescan method relative to control
Sequence of Myosin-IIIa (Homo sapiens) (Q8NEV4 whole entry, the tested form may be a part): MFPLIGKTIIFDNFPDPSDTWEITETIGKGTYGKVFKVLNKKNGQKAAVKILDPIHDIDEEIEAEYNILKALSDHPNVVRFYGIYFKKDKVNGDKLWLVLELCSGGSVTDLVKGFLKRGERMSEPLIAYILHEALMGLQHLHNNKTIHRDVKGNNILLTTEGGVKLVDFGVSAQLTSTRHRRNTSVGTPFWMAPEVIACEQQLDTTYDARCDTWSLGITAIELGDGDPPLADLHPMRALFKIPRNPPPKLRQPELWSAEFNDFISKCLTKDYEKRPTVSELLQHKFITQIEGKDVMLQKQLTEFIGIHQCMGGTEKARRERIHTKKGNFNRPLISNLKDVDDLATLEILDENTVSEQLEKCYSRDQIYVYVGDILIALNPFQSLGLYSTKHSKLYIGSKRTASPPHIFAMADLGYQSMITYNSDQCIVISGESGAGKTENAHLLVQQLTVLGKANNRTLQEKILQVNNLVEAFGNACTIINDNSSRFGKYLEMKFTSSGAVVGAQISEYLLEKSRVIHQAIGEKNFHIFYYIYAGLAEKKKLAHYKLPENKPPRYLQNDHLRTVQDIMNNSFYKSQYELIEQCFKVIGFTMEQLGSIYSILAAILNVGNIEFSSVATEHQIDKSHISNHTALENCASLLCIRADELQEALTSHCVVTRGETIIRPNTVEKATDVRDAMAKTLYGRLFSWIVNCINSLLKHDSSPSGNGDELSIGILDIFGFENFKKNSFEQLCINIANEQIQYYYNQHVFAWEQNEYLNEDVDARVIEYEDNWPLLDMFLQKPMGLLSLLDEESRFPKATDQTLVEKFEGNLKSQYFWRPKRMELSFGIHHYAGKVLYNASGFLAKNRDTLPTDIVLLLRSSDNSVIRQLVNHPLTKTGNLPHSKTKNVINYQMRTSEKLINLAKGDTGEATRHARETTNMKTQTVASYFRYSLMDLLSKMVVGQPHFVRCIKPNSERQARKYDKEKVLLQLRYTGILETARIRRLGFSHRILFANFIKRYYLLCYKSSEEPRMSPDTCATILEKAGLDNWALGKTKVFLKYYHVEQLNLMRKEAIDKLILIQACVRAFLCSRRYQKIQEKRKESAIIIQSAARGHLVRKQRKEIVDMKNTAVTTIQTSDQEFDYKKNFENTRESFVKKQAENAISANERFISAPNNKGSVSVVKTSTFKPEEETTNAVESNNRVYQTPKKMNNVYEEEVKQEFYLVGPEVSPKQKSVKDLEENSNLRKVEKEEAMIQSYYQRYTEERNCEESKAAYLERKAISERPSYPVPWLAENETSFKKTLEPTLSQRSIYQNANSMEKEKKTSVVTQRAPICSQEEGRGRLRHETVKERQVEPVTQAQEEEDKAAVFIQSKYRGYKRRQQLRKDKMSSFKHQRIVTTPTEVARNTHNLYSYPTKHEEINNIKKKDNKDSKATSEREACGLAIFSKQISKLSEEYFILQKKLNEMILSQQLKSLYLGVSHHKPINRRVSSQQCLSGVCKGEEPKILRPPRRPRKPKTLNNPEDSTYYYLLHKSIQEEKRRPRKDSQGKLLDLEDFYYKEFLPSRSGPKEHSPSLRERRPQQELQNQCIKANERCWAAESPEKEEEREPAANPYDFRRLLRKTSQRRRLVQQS

[12] = system: Receptor-type tyrosine-protein kinase FLT3 (Homo sapiens), P36888 [R834Q]; assay: Inhibition of human partial length FLT3 R834Q mutant (V592 to Y969 residues) expressed in mammalian expression system assessed as residual activity at 1 uM by Kinomescan method relative to control
[13] = molecular target: Citron Rho-interacting kinase (Homo sapiens) (UniProt O14578); assay: Inhibition of wild-type human partial length CIT (M68 to E432 residues) expressed in bacterial expression system assessed as residual activity at 1 uM by Kinomescan method relative to control
[14] = molecular target: Serine/threonine-protein kinase DCLK3 (Homo sapiens) (UniProt Q9C098); assay: Inhibition of wild-type human partial length DCAMKL3 (E140 to V628 residues) expressed in bacterial expression system assessed as residual activity at 1 uM by Kinomescan method relative to control
[15] = molecular target: Cyclin-dependent kinase 15 (Homo sapiens) (UniProt Q96Q40); assay: Inhibition of wild-type human full length PFTAIRE2 (M1 to W384 residues) expressed in bacterial expression system assessed as residual activity at 1 uM by Kinomescan method relative to control
Sequence of Cyclin-dependent kinase 15 (Homo sapiens) (Q96Q40 whole entry, the tested form may be a part): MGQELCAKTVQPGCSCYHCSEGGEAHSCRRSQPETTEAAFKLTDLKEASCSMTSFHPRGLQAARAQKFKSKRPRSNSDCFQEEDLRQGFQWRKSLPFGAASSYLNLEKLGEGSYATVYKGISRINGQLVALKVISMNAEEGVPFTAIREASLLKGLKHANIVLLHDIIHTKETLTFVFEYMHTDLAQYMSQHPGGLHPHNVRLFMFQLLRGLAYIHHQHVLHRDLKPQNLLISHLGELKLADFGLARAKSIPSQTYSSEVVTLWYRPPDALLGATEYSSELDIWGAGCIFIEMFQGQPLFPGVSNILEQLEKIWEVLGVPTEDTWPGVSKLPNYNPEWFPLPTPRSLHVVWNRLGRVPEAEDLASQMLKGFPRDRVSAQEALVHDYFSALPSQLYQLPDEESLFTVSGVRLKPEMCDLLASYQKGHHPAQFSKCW

Homo sapiens [16] = organism: Homo sapiens; assay: Inhibition of human partial length FLT3 ITD/D835V double mutant expressed in bacterial expression system assessed as residual activity at 1 uM by Kinomescan method relative to control
[17] = molecular target: Hormonally up-regulated neu tumor-associated kinase (Homo sapiens) (UniProt P57058); assay: Inhibition of wild-type human partial length HUNK (A31 to K354 residues) expressed in bacterial expression system assessed as residual activity at 1 uM by Kinomescan method relative to control
[18] = system: Epidermal growth factor receptor (Homo sapiens), P00533 [UNDEFINED MUTATION]; assay: Inhibition of human partial length EGFR L747-T751del/Sins mutant expressed in bacterial expression system assessed as residual activity at 1 uM by Kinomescan method relative to control
[19] = molecular target: Calcium/calmodulin-dependent protein kinase type 1B (Homo sapiens) (UniProt Q6P2M8); assay: Inhibition of wild-type human partial length CAMK1B (W9 to A311 residues) expressed in mammalian expression system assessed as residual activity at 1 uM by Kinomescan method relative to control
Sequence of Calcium/calmodulin-dependent protein kinase type 1B (Homo sapiens) (Q6P2M8 whole entry, the tested form may be a part): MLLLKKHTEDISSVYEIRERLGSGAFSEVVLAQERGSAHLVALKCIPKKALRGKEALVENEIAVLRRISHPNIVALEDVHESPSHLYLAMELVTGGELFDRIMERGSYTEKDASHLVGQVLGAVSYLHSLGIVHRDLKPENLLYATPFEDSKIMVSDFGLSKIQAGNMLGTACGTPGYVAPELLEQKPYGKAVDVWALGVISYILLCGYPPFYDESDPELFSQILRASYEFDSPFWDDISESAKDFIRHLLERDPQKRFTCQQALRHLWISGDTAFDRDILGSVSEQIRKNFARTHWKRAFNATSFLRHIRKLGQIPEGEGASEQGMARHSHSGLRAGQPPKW

[20] = system: Epidermal growth factor receptor (Homo sapiens), P00533 [UNDEFINED MUTATION]; assay: Inhibition of human partial length EGFR L747-E749del/A750P mutant expressed in bacterial expression system assessed as residual activity at 1 uM by Kinomescan method relative to control
U2932 = assay: Cell cycle arrest in human U2932 cells assessed as increase in accumulation at G0/G1 phase after 48 hrs by propidium iodide/RNase staining based flow cytometric method; type: functional
[21] = system: eIF-2-alpha kinase GCN2 (Homo sapiens), Q9P2K8 [S808G]; assay: Inhibition of […] human partial length GCN2 kinase domain 2 (R585 to T1018 residues) S808G mutant expressed in bacterial expression system assessed as residual activity at 1 uM by Kinomescan method relative to control
[22] = molecular target: RAC-alpha serine/threonine-protein kinase (Homo sapiens) (UniProt P31749); assay: Inhibition of wild-type human partial length AKT1 expressed in bacterial expression system assessed as residual activity at 1 uM by Kinomescan method relative to control
Sequence of RAC-alpha serine/threonine-protein kinase (Homo sapiens) (P31749 whole entry, the tested form may be a part): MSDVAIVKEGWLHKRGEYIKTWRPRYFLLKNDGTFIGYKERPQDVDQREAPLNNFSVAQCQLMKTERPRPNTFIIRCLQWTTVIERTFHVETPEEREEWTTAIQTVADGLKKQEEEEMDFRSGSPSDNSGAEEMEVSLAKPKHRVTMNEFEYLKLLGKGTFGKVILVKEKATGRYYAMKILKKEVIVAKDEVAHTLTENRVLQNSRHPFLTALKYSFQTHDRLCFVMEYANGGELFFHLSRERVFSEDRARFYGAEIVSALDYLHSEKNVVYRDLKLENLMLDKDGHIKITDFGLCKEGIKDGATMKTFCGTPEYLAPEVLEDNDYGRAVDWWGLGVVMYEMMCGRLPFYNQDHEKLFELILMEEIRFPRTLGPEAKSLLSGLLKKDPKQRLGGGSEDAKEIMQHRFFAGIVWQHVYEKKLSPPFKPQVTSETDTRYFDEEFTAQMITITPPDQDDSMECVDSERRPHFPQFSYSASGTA

[23] = molecular target: Protein kinase C eta type (Homo sapiens) (UniProt P24723); assay: Inhibition of wild-type human partial length PRKCH (S324 to P683 residues) expressed in bacterial expression system assessed as residual activity at 1 uM by Kinomescan method relative to control
Sequence of Protein kinase C eta type (Homo sapiens) (P24723 whole entry, the tested form may be a part): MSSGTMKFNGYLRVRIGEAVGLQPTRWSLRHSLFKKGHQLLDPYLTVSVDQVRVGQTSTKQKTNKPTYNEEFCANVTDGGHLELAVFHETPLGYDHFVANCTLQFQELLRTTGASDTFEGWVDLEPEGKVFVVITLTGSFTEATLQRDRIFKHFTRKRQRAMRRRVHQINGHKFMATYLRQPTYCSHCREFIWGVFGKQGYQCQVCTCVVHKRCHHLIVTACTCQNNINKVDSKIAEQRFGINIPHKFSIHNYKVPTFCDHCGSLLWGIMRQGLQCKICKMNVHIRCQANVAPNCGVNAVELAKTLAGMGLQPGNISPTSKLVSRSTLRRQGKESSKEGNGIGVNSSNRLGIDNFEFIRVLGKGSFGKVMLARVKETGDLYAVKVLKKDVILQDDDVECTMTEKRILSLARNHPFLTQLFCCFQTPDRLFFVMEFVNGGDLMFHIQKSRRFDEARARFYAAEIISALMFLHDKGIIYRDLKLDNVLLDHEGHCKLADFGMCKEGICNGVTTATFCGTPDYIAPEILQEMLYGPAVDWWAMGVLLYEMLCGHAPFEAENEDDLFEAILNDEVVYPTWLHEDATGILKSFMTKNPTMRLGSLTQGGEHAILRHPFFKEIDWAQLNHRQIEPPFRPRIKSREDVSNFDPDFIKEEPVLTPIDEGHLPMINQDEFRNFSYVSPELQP

Homo sapiens [24] = organism: Homo sapiens; assay: Inhibition of human partial length FLT3 ITD mutant expressed in bacterial expression system assessed as residual activity at 1 uM by Kinomescan method relative to control
[25] = molecular target: Tyrosine-protein kinase JAK2 (Homo sapiens) (UniProt O60674); assay: Inhibition of wild-type human partial length JAK2 JH1 catalytic domain (A829 to G1132 residues) expressed in mammalian expression system assessed as residual activity at 1 uM by Kinomescan method relative to control
[26] = system: Phosphatidylinositol 4,5-bisphosphate 3-kinase catalytic subunit alpha isoform (Homo sapiens), P42336 [H1047Y]; assay: Inhibition of human partial length PIK3CA H1047Y mutant (R108 to N1068 residues) expressed in mammalian expression system assessed as residual activity at 1 uM by Kinomescan method relative to control

**Q.** For C=CC(=O)Nc1cc(Nc2cc(-c3cccc(NC(=O)c4ccc(C(C)(C)C)cc4)c3C)cn(C)c2=O)ccc1C(=O)N1CCOCC1, which Activity [1] is on record?
**A.** 95%

**Q.** And the Activity [2]?
**A.** 79%

**Q.** What about the Activity [3] of the same compound?
**A.** 100%

**Q.** What about the Activity [4] of the same compound?
**A.** 100%

**Q.** And the Activity [5]?
**A.** 99%

**Q.** And the Activity [6]?
**A.** 100%

**Q.** What about the GI50 [7] of the same compound?
**A.** 7.3 µM

**Q.** What about the Activity [8] of the same compound?
**A.** 100%

**Q.** What about the half-life [9] of the same compound?
**A.** 13.8 min

**Q.** What about the Activity [10] of the same compound?
**A.** 92%

**Q.** And the Activity [11]?
**A.** 95%

**Q.** And the Activity [12]?
**A.** 91%

**Q.** What about the Activity [13] of the same compound?
**A.** 97%

**Q.** And the Activity [14]?
**A.** 100%

**Q.** What about the Activity [15] of the same compound?
**A.** 97%

**Q.** What about the Activity (Homo sapiens [16]) of the same compound?
**A.** 100%

**Q.** What about the Activity [17] of the same compound?
**A.** 77%

**Q.** And the Activity [18]?
**A.** 100%

**Q.** What about the Activity [19] of the same compound?
**A.** 85%

**Q.** What about the Activity [20] of the same compound?
**A.** 94%

**Q.** And the Activity (U2932)?
**A.** Dose-dependent effect

**Q.** What about the Activity [21] of the same compound?
**A.** 100%

**Q.** And the Activity [22]?
**A.** 100%

**Q.** What about the Activity [23] of the same compound?
**A.** 100%

**Q.** And the Activity (Homo sapiens [24])?
**A.** 90%

**Q.** What about the Activity [25] of the same compound?
**A.** 73%

**Q.** And the Activity [26]?
**A.** 91%
